Assay results from patent US20240360082A1, “SUBSTITUTED PYRIDONE COMPOUNDS USEFUL TO TREAT ORTH[…]” (priority 2021, published 2024).

Columns and labels:
[1] = biological target: influenza A virus minigenome (PB2, PB1, PA, NP proteins) (UniProt P04665); format: cell-based; details: read-out: RNP_ Hubei B IC50
[2] = biological target: influenza B virus minigenome (Hubei B) (UniProt P04665); format: cell-based; details: read-out: RNP_Hubei B IC50
Chain of influenza B virus minigenome (Hubei B) (P04665 whole entry): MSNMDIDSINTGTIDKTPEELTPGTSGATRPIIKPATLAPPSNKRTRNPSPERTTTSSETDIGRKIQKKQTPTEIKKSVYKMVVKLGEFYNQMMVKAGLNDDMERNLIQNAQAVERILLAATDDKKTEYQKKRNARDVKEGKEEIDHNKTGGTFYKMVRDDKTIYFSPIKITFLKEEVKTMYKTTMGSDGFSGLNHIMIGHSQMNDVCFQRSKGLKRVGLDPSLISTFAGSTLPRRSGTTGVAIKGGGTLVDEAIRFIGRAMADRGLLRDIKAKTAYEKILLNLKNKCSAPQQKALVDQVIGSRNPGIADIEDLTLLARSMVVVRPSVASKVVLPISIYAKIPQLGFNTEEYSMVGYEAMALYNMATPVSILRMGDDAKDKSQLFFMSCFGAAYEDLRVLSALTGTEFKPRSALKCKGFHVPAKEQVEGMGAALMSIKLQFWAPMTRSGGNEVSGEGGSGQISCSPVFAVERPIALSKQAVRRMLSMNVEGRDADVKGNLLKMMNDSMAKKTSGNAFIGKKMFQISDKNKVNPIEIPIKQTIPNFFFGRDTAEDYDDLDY

Chain of influenza A virus minigenome (PB2, PB1, PA, NP proteins) (P04665 whole entry): as above

Compound | IC50 [1] [µM] | IC50 [2] [µM]
NC(=O)c1cc(-c2ccc(OC[C@@H]3COCC4(COCCOC4)O3)cc2)c(C(F)(F)F)[nH]c1=O [Example 416, (S)-5-(4-((1,4,8,11-tetraoxaspiro[5.6]dodecan-2-yl)methoxy)phenyl)-2-oxo-6-(trifluoromethyl)-1,2-dihydropyridine-3-carboxamide] | 5 to 10 | 
COC[C@@]1(CF)COC[C@@H](COc2ccc(-c3cc(C(N)=O)c(=O)[nH]c3C(F)(F)F)cc2)O1 [Example 417, 5-(4-(((2S,6S)-6-(fluoromethyl)-6-(methoxymethyl)-1,4-dioxan-2-yl)methoxy)phenyl)-2-oxo-6-(trifluoromethyl)-1,2-dihydropyridine-3-carboxamide] | 5 to 10 | 
COC[C@@]1(CCl)COC[C@@H](COc2ccc(-c3cc(C(N)=O)c(=O)[nH]c3C(F)(F)F)cc2)O1 [Example 418, 5-(4-(((2S,6S)-6-(chloromethyl)-6-(methoxymethyl)-1,4-dioxan-2-yl)methoxy)phenyl)-2-oxo-6-(trifluoromethyl)-1,2-dihydropyridine-3-carboxamide] | 5 to 10 | 
C[C@@]1(CF)COC[C@@H](COc2ccc(-c3cc(C(N)=O)c(=O)[nH]c3C(F)(F)F)cc2)O1 [Example 419, 5-(4-(((2S,6S)-6-(fluoromethyl)-6-methyl-1,4-dioxan-2-yl)methoxy)phenyl)-2-oxo-6-(trifluoromethyl)-1,2-dihydropyridine-3-carboxamide] | 5 to 10 | 
C[C@]1(CF)COC[C@@H](COc2ccc(-c3cc(C(N)=O)c(=O)[nH]c3C(F)(F)F)cc2)O1 [Example 420, 5-(4-(((2S,6R)-6-(fluoromethyl)-6-methyl-1,4-dioxan-2-yl)methoxy)phenyl)-2-oxo-6-(trifluoromethyl)-1,2-dihydropyridine-3-carboxamide] | 5 to 10 | 
C[C@@]1(CN2CC(F)C2)COC[C@@H](COc2ccc(-c3cc(C(N)=O)c(=O)[nH]c3C(F)(F)F)cc2)O1 [Example 421] | 5 to 10 | 
C[C@@]1(CN2CC(F)(F)C2)COC[C@@H](COc2ccc(-c3cc(C(N)=O)c(=O)[nH]c3C(F)(F)F)cc2)O1 [Example 422, 5-(4-(((2S,6R)-6-((3,3-difluoroazetidin-1-yl)methyl)-6-methyl-1,4-dioxan-2-yl)methoxy)phenyl)-2-oxo-6-(trifluoromethyl)-1,2-dihydropyridine-3-carboxamide] | 5 to 10 | 
CN(C)C[C@@]1(C)COC[C@@H](COc2ccc(-c3cc(C(N)=O)c(=O)[nH]c3C(F)(F)F)cc2)O1 [Example 423, 5-(4-(((2S,6S)-6-((dimethylamino)methyl)-6-methyl-1,4-dioxan-2-yl)methoxy)phenyl)-2-oxo-6-(trifluoromethyl)-1,2-dihydropyridine-3-carboxamide] | 5 to 10 | 
CN(C)C[C@]1(C)COC[C@@H](COc2ccc(-c3cc(C(N)=O)c(=O)[nH]c3C(F)(F)F)cc2)O1 [Example 424, 5-(4-(((2S,6R)-6-((dimethylamino)methyl)-6-methyl-1,4-dioxan-2-yl)methoxy)phenyl)-2-oxo-6-(trifluoromethyl)-1,2-dihydropyridine-3-carboxamide] | 5 to 10 | 
C[C@]1(COC(F)F)COC[C@@H](COc2ccc(-c3cc(C(N)=O)c(=O)[nH]c3C(F)(F)F)cc2)O1 [Example 425, 5-(4-(((2S,6R)-6-((difluoromethoxy)methyl)-6-methyl-1,4-dioxan-2-yl)methoxy)phenyl)-2-oxo-6-(trifluoromethyl)-1,2-dihydropyridine-3-carboxamide] | 5 to 10 | 
COCC[C@@]1(C)COC[C@@H](COc2ccc(-c3cc(C(N)=O)c(=O)[nH]c3C(F)(F)F)cc2)O1 [Example 426, 5-(4-(((2S,6S)-6-(2-methoxyethyl)-6-methyl-1,4-dioxan-2-yl)methoxy)phenyl)-2-oxo-6-(trifluoromethyl)-1,2-dihydropyridine-3-carboxamide] | 5 to 10 | 
C[C@]1(COC2COC2)COC[C@@H](COc2ccc(-c3cc(C(N)=O)c(=O)[nH]c3C(F)(F)F)cc2)O1 [Example 427, 5-(4-(((2S,6R)-6-methyl-6-((oxetan-3-yloxy)methyl)-1,4-dioxan-2-yl)methoxy)phenyl)-2-oxo-6-(trifluoromethyl)-1,2-dihydropyridine-3-carboxamide] | 5 to 10 | 
CCOC[C@@]1(C)COC[C@@H](COc2ccc(-c3cc(C(N)=O)c(=O)[nH]c3C(F)(F)F)cc2)O1 [Example 428, 5-(4-(((2S,6S)-6-(ethoxymethyl)-6-methyl-1,4-dioxan-2-yl)methoxy)phenyl)-2-oxo-6-(trifluoromethyl)-1,2-dihydropyridine-3-carboxamide] | 5 to 10 | 
CC1(OC[C@@]2(C)COC[C@@H](COc3ccc(-c4cc(C(N)=O)c(=O)[nH]c4C(F)(F)F)cc3)O2)COC1 [Example 429] | 5 to 10 | 
COCCOC[C@@]1(C)COC[C@@H](COc2ccc(-c3cc(C(N)=O)c(=O)[nH]c3C(F)(F)F)cc2)O1 [Example 430, 5-(4-(((2S,6S)-6-((2-methoxyethoxy)methyl)-6-methyl-1,4-dioxan-2-yl)methoxy)phenyl)-2-oxo-6-(trifluoromethyl)-1,2-dihydropyridine-3-carboxamide] | 5 to 10 | 
C[C@]1(COCC(F)F)COC[C@@H](COc2ccc(-c3cc(C(N)=O)c(=O)[nH]c3C(F)(F)F)cc2)O1 [Example 431, 5-(4-(((2S,6R)-6-((2,2-difluoroethoxy)methyl)-6-methyl-1,4-dioxan-2-yl)methoxy)phenyl)-2-oxo-6-(trifluoromethyl)-1,2-dihydropyridine-3-carboxamide] | 5 to 10 | 
C[C@]1(COCC(F)(F)F)COC[C@@H](COc2ccc(-c3cc(C(N)=O)c(=O)[nH]c3C(F)(F)F)cc2)O1 [Example 432, 5-(4-(((2S,6R)-6-methyl-6-((2,2,2-trifluoroethoxy)methyl)-1,4-dioxan-2-yl)methoxy)phenyl)-2-oxo-6-(trifluoromethyl)-1,2-dihydropyridine-3-carboxamide] | 5 to 10 | 
C[C@]1(CO)COC[C@@H](COc2ccc(-c3cc(C(N)=O)c(=O)[nH]c3C(F)(F)F)cc2)O1 [Example 433, 5-(4-(((2S,6S)-6-(hydroxymethyl)-6-methyl-1,4-dioxan-2-yl)methoxy)phenyl)-2-oxo-6-(trifluoromethyl)-1,2-dihydropyridine-3-carboxamide] | 5 to 10 | 
C[C@]1(CC(F)F)COC[C@@H](COc2ccc(-c3cc(C(N)=O)c(=O)[nH]c3C(F)(F)F)cc2)O1 [Example 434, 5-(4-(((2S,6S)-6-(2,2-difluoroethyl)-6-methyl-1,4-dioxan-2-yl)methoxy)phenyl)-2-oxo-6-(trifluoromethyl)-1,2-dihydropyridine-3-carboxamide] | 5 to 10 | 
C[C@]1(CCF)COC[C@@H](COc2ccc(-c3cc(C(N)=O)c(=O)[nH]c3C(F)(F)F)cc2)O1 [Example 435, 5-(4-(((2S,6S)-6-(2-fluoroethyl)-6-methyl-1,4-dioxan-2-yl)methoxy)phenyl)-2-oxo-6-(trifluoromethyl)-1,2-dihydropyridine-3-carboxamide] | 5 to 10 | 
C[C@]1(COCCF)COC[C@@H](COc2ccc(-c3cc(C(N)=O)c(=O)[nH]c3C(F)(F)F)cc2)O1 [Example 436, 5-(4-(((2S,6R)-6-((2-fluoroethoxy)methyl)-6-methyl-1,4-dioxan-2-yl)methoxy)phenyl)-2-oxo-6-(trifluoromethyl)-1,2-dihydropyridine-3-carboxamide] |  | 5 to 10
C[C@@]1(C2CC2)COC[C@@H](COc2ccc(-c3cc(C(N)=O)c(=O)[nH]c3C(F)(F)F)cc2)O1 [Example 437, 5-(4-(((2S,6R)-6-cyclopropyl-6-methyl-1,4-dioxan-2-yl)methoxy)phenyl)-2-oxo-6-(trifluoromethyl)-1,2-dihydropyridine-3-carboxamide] |  | 5 to 10
COC[C@]1(C2CC2)COC[C@@H](COc2ccc(-c3cc(C(N)=O)c(=O)[nH]c3C(F)(F)F)cc2)O1 [Example 438, 5-(4-(((2S,6R)-6-cyclopropyl-6-(methoxymethyl)-1,4-dioxan-2-yl)methoxy)phenyl)-2-oxo-6-(trifluoromethyl)-1,2-dihydropyridine-3-carboxamide] |  | 5 to 10
COC[C@@]1(C2CC2)COC[C@@H](COc2ccc(-c3cc(C(N)=O)c(=O)[nH]c3C(F)(F)F)cc2)O1 [Example 439, 5-(4-(((2S,6S)-6-cyclopropyl-6-(methoxymethyl)-1,4-dioxan-2-yl)methoxy)phenyl)-2-oxo-6-(trifluoromethyl)-1,2-dihydropyridine-3-carboxamide] |  | 5 to 10
NC(=O)c1cc(-c2ccc(OC[C@@H]3COC[C@]4(CCOC4)O3)cc2)c(C(F)(F)F)[nH]c1=O [Example 440, 5-(4-(((5R,7S)-2,6,9-trioxaspiro[4.5]decan-7-yl)methoxy)phenyl)-2-oxo-6-(trifluoromethyl)-1,2-dihydropyridine-3-carboxamide] |  | 5 to 10
